Measurements published in patent US10294262B2, “7-deazapurine nucleosides for therapeutic uses” (Institute of Organic Chemistry and Biochemistry ASCR, V.V.I., priority 2009, dated 2019).
Read-outs that look alike come from different tables or passages of the source.

Key:
human tumor cell lines = test: Tests A and B, all tumor cell lines together; assay type: cell-based; details: read-out: CC50 Geometric mean all
Procedure: (§1) • 1. […] Fix one plate of each cell line with TCA. […] Discard TCA from the plates by flicking them gently. […] Store the plates at room temperature. These plates represent cell counts on day zero. • 4. […] Add 50 μL of the diluted compounds per well. […] Fix the plates with TCA. […] Discard TCA from the plates by flicking them gently. […] Leave at room temperature for 30 minutes. • 9. Flick the plates gently to discard SRB.
Plates were incubated for 5 days with tested compounds.

A549 = test: Test A: Cytostatic cell culture assay (CC50), SRB, solid tumor cell lines; details: Homo sapiens, A549, 120 h, read-out: CC50 Lung A549
From the text: Test A: Cytostatic Cell Culture Assay (CC50) for Solid Tumor Cell Lines
This assay is based on quantification of cell mass determination by a colorimetric detection of the cell associated proteins. The assay relies on the ability of sulforhodamine B (SRB) to bind to protein components of cells that have been fixed to tissue-culture plates by trichloroacetic acid (TCA). SRB is a bright-pink aminoxanthene dye with two sulfonic groups that bind to basic amino-acid residues under mild acidic conditions, and dissociate under basic conditions. As the binding of SRB is stochiometric, the amount of dye extracted from stained cells is directly proportional to the cell mass.
Cell lines: All cell lines are obtained from ATCC (Manassas, Va.). Cultivation media containing Glutamax, and trypsin are purchased from Invitrogen (Carlsbad, Calif.). Doxorubicin, Tubercidin, Clofarabine, TCA and SRB are from Sigma-Aldrich (St. Louis, Mo.). Gemcitabine is obtained from Moravek Biochemicals (Brea, Calif.)
• 1. Trypsinize the sub-confluent cells, count them, and adjust the cell concentrations according to the cell counts listed in Table 1. • 2. Distribute the cells into the 96-well plates in 150 μL of media. Incubate the plates overnight in humidified CO2 incubator at 37° C. • 3. Fix one plate of each cell line with TCA. Discard the cultivation media from the plates by flicking them gently and add 100 μL cold 10% (vol/vol) TCA to each well. Incubate the plates at 4 degree refrigerator for 1 hour. Discard TCA from the plates by flicking them gently. Rinse plates four times in a washing basin containing tap water. Store the plates at room temperature. These plates represent cell counts on day zero. • 4. Prepare a set of medium solutions containing various concentrations of tested compounds by making 5-fold serial dilutions in 96-well plate. Add 50 μL of the diluted compounds per well. Include controls with untreated cells and cells treated with doxorubicin, tubercidin, clofarabine and/or gemcitabine. • 5. Incubate the plates for 5 days at 37° C. • 6. Fix the plates with TCA. Discard the cultivation media from the plates by flicking them gently and add 100 μL cold 10% (vol/vol) TCA to each well. Incubate the plates at 4 degree refrigerator for 1 hour. Discard TCA from the plates by flicking them gently. Rinse plates four times in a washing basin containing tap water. • 7. Remove excess water by tapping the plates face down, gently on a paper towel. Allow the plates to air-dry at room temperature. • 8. Add 100 μL of 0.057% SRB solution in 1% (vol/vol) acetic acid to each well of the plates fixed with TCA on day zero and five. Leave at room temperature for 30 minutes. • 9. Flick the plates gently to discard SRB. Rinse the plates four times with 1% (vol/vol) Acetic Acid. • 10. Store the plates at 37° incubator to facilitate faster drying. • 11. Once the plates are completely dry, add 200 μL of 10 mM Tris base solution (pH 10.5) to each well. Leave at room temperature for 30 minutes for SRB to solubilize. • 12. Measure the OD at 500 nm in a microplate reader. • 13. Calculate the percentage of cell-growth inhibition using the next formula: % of control cell growth=100×(ODsample−mean ODday0)/(ODneg control−mean ODday0). For CC50 determination, plot a dose-response curves between the compound concentration and percent of growth inhibition. CC50 values can be derived by fitting dose-response curves using sigmoidal dose response equation.

BT549 = test: as above; assay type: cell-based; details: Homo sapiens, BT-549, 120 h, read-out: CC50 Breast BT549
Procedure: (§2) Gemcitabine is obtained from Moravek Biochemicals (Brea, Calif.)
as §1

PC3 = test: as above; assay type: cell-based; details: Homo sapiens, PC-3, 120 h, read-out: CC50 Prostate PC3
Procedure: as §2, §1

HS578 = test: as above; assay type: cell-based; details: Homo sapiens, Hs578, 120 h, read-out: CC50 Breast HS578
Procedure: as §2, §1

HCT116 = test: as above; assay type: cell-based; details: Homo sapiens, HCT-116, 120 h, read-out: CC50 Colon HCT116
Procedure: as §2, §1

NCI H23 = test: as above; assay type: cell-based; details: Homo sapiens, NCI-H23, 120 h, read-out: CC50 Lung NCI H23
Procedure: as §2, §1

[1] = test system: MT-4 T-lymphoid cell line; test: Test B: Cytostatic cell culture assay (CC50), CellTiter Glo, lymphoid tumor cell lines; details: Homo sapiens, MT4, 120 h, read-out: CC50 T-lymphoid MT-4
Procedure: Test B: Cytostatic Cell Culture Assay (CC50) for Lymphoid Tumor Cell Lines
This test is typically performed with cell lines that are derived from hematological tumors and grow in suspension. An example of such cell line is human MT-4 T-lymphoid cell line used for the determination of cytostatic activity of tested compounds. […] Cells were passaged in suspension twice a week and maintained at densities below 500,000 cells/mL. For CC50 determination, cells were seeded into 384-well plates at 2,000 cells/well in 20 μL of culture medium. Compounds were serially diluted in culture medium and added in triplicate to a final assay volume of 40 μL/well. Plates were incubated for 5 days with tested compounds. At the end of incubation, cell viability was determined by addition of 40 μL of CellTiter Glo reagent followed by a luminescence read-out.
Data analysis and CC50 value calculations were done using GraphPad Prism software (GraphPad Software, San Diego, Calif.) by applying nonlinear regression.

Du145 = test: Test A: Cytostatic cell culture assay (CC50), SRB, solid tumor cell lines; assay type: cell-based; details: Homo sapiens, DU-145, 120 h, read-out: CC50 Prostate Du145
Procedure: as §2, §1

[2] = BT549 breast tumor cells, 5 days, SRB

For `Nc1ncnc2c1c(-c1cc[nH]c1)cn2[C@@H]1O[C@H](CO)[C@@H](O)[C@H]1O` [Compound 2l, 4-Amino-5-(1H-pyrrol-3-yl)-7-(β-D-ribofuranosyl)-7H-pyrrolo[2,3-d]pyrimidine], the CC50 (human tumor cell lines) was 11.4 nM, the CC50 (A549) was 5.3 nM and the CC50 (BT549; [2]) was 8 nM. For the same molecule, the CC50 (PC3) was 29 nM, the CC50 (HS578) was 4.4 nM and the CC50 (HCT116) was 5.9 nM. The CC50 (NCI H23) was 33 nM and the CC50 [1] was 24 nM.
Molecule `C[C@@]1(O)[C@H](O)[C@@H](CO)O[C@H]1n1cc(-c2ccccc2)c2c(N)ncnc21` [Compound 7a, 4-Amino-7-(2-C-methyl-β-D-ribofuranosyl)-5-phenyl-7H-pyrrolo[2,3-d]pyrimidine] has a melting point of 129 °C.
`COc1cccc2c1C(=O)c1c(O)c3c(c(O)c1C2=O)C[C@@](O)(C(=O)CO)C[C@@H]3O[C@H]1C[C@H](N)[C@H](O)[C@H](C)O1` [Doxorubicine, reference compound] showed a CC50 (human tumor cell lines) of 10.1 nM, a CC50 (A549) of 16 nM and a CC50 (BT549; [2]) of 10 nM. The CC50 (PC3) was 21 nM, the CC50 (HS578) was 6 nM and the CC50 (HCT116) was 11 nM. For the same molecule, the CC50 (NCI H23) was 5 nM.
With `Nc1ncnc2c1c(-c1ncc[nH]1)cn2[C@@H]1O[C@H](CO)[C@@H](O)[C@H]1O` [Compound 2s, 4-Amino-5-(1H-imidazol-2-yl)-7-(β-D-ribofuranosyl)-7H-pyrrolo[2,3-d]pyrimidine] the CC50 (human tumor cell lines) was 3.8 nM, the melting point was 153 to 156 °C and the CC50 (PC3) was 1 nM. It also gave a CC50 (HS578) of 1 nM, a CC50 (HCT116) of 2 nM and a CC50 (NCI H23) of 6 nM. The CC50 [1] was 49 nM.
Work on `CSc1ccc(-c2cn([C@@H]3O[C@H](CO)[C@@H](O)[C@H]3O)c3ncnc(N)c23)cc1` [Compound 2c, 4-Amino-5-[4-(methylthio)phenyl]-7-(β-D-ribofuranosyl)-7H-pyrrolo[2,3-d]pyrimidine] yielded a CC50 (human tumor cell lines) of 1520 nM, a CC50 (HS578) of 1970 nM and a CC50 (HCT116) of 1290 nM. The CC50 (NCI H23) was 390 nM, the CC50 (Du145) was 1870 nM and the CC50 [1] was 4400 nM.
With `Nc1ncnc2c1c(-c1cc[nH]n1)cn2[C@@H]1O[C@H](CO)[C@@H](O)[C@H]1O` [Compound 2n, 4-Amino-5-(1H-pyrazol-3-yl)-7-(β-D-ribofuranosyl)-7H-pyrrolo[2,3-d]pyrimidine] the CC50 (human tumor cell lines) was 17.1 nM, the melting point was 135 °C and the CC50 (PC3) was 15 nM. It also gave a CC50 (HS578) of 8 nM, a CC50 (HCT116) of 18 nM and a CC50 (NCI H23) of 35 nM. The CC50 [1] was 18 nM.
For `Nc1ncnc2c1c(-c1nccs1)cn2[C@@H]1O[C@H](CO)[C@@H](O)[C@H]1O` [Compound 2q, 4-Amino-7-(β-D-ribofuranosyl)-5-(thiazol-2-yl)-7H-pyrrolo[2,3-d]pyrimidine], the CC50 (human tumor cell lines) was 25.6 nM, the CC50 (PC3) was 42 nM and the CC50 (HS578) was 15 nM. The CC50 (HCT116) was 93 nM, the CC50 (NCI H23) was 5 nM and the CC50 [1] was 42 nM.
For `Nc1ncnc2c1c(-c1cc3ccccc3o1)cn2[C@@H]1O[C@H](CO)[C@@H](O)[C@H]1O` [Compound 2j, 4-Amino-5-(benzofuran-2-yl)-7-(β-D-ribofuranosyl)-7H-pyrrolo[2,3-d]pyrimidine], the CC50 (human tumor cell lines) was 5540 nM, the CC50 (A549) was 7020 nM and the CC50 (BT549) was greater than 10000 nM. The CC50 (PC3) was 6290 nM, the CC50 (HS578) was 6730 nM and the CC50 (HCT116) was 3740 nM. The CC50 (NCI H23) was 5400 nM and the CC50 [1] was 4800 nM.
`Nc1ncnc2c1c(-c1ccoc1)cn2[C@@H]1O[C@H](CO)[C@@H](O)[C@H]1O` [Compound 2h, 4-Amino-5-(furan-3-yl)-7-(β-D-ribofuranosyl)-7H-pyrrolo[2,3-d]pyrimidine] showed a CC50 (human tumor cell lines) of 78.1 nM, a CC50 (A549) of 34 nM and a CC50 (BT549; [2]) of 28 nM. The CC50 (PC3) was 418 nM, the CC50 (HS578) was 21 nM and the CC50 (HCT116) was 15 nM. It also gave a CC50 (NCI H23) of 198 nM, a CC50 (Du145) of 330 nM and a CC50 [1] of 170 nM.
`Nc1ncnc2c1c(-c1cccc3ccccc13)cn2[C@@H]1O[C@H](CO)C(O)C1O` (stereo partly drawn) [Compound 2d, 4-Amino-5-(naphtalen-1-yl)-7-(β-D-ribofuranosyl)-7H-pyrrolo[2,3-d]pyrimidine] gave a CC50 (human tumor cell lines) greater than 10000 nM, a CC50 (HS578) greater than 10000 nM and a CC50 (HCT116) greater than 10000 nM. For the same molecule, the CC50 (NCI H23) was greater than 10000 nM and the CC50 (Du145) was greater than 10000 nM.
For `Nc1ncnc2c1c(-c1c[nH]cn1)cn2[C@@H]1O[C@H](CO)[C@@H](O)[C@H]1O` [Compound 2r, 4-Amino-5-(1H-imidazol-4-yl)-7-(β-D-ribofuranosyl)-7H-pyrrolo[2,3-d]pyrimidine], the CC50 (human tumor cell lines) was 3.8 nM, the CC50 (PC3) was 2 nM and the CC50 (HS578) was 2 nM. It also gave a CC50 (HCT116) of 3 nM, a CC50 (NCI H23) of 2 nM and a CC50 [1] of 28 nM.
With `Nc1ncnc2c1c(-c1ccsc1)cn2[C@@H]1O[C@H](CO)[C@@H](O)[C@H]1O` [Compound 2i, 4-Amino-7-(β-D-ribofuranosyl)-5-(thiophen-3-yl)-7H-pyrrolo[2,3-d]pyrimidine] the CC50 (human tumor cell lines) was 60.7 nM, the CC50 (A549) was 16 nM and the CC50 (BT549; [2]) was 28 nM. For the same molecule, the CC50 (PC3) was 1320 nM, the CC50 (HS578) was 50 nM and the CC50 (HCT116) was 7 nM. The CC50 (NCI H23) was 73 nM, the CC50 (Du145) was 97 nM and the CC50 [1] was 124 nM.
With `Nc1ncnc2c1c(-c1c[nH]nn1)cn2[C@@H]1O[C@H](CO)[C@@H](O)[C@H]1O` [Compound 2p, 4-Amino-7-(β-D-ribofuranosyl)-5-(1H-1,2,3-triazol-4-yl)-7H-pyrrolo[2,3-d]pyrimidine] the CC50 (human tumor cell lines) was 5.2 nM, the melting point was 286 to 288 °C and the CC50 (PC3) was 5 nM. The CC50 (HS578) was 3 nM, the CC50 (HCT116) was 4 nM and the CC50 (NCI H23) was 4 nM. It also gave a CC50 [1] of 18 nM.
In the case of `Nc1ncnc2c1c(-c1cn[nH]c1)cn2[C@@H]1O[C@H](CO)[C@@H](O)[C@H]1O` [Compound 2m, 4-Amino-5-(1H-pyrazol-4-yl)-7-(β-D-ribofuranosyl)-7H-pyrrolo[2,3-d]pyrimidine], the CC50 (human tumor cell lines) is reported as 81.9 nM, the CC50 (A549) is reported as 192 nM and the CC50 (BT549; [2]) is reported as 50 nM. It also gave a CC50 (PC3) of 14 nM, a CC50 (HS578) of 12 nM and a CC50 (HCT116) of 970 nM. For the same molecule, the CC50 (NCI H23) was 144 nM and the CC50 [1] was 110 nM.
In the case of `COc1ccc(-c2cn([C@@H]3O[C@H](CO)[C@@H](O)[C@@]3(C)O)c3ncnc(N)c23)cc1` [Compound 7b, 4-Amino-5-(4-methoxyphenyl)-7-(2-C-methyl-β-D-ribofuranosyl)-7H-pyrrolo[2,3-d]pyrimidine], the melting point is reported as 127 °C.
`Nc1ncnc2c1c(-c1ccc3ccccc3c1)cn2[C@@H]1O[C@H](CO)C(O)C1O` (stereo partly drawn) [Compound 2e, 4-Amino-5-(naphtalen-2-yl)-7-(β-D-ribofuranosyl)-7H-pyrrolo[2,3-d]pyrimidine] gave a CC50 (human tumor cell lines) of 2880 nM, a CC50 (HS578) of 2160 nM and a CC50 (HCT116) of 5670 nM. It also gave a CC50 (NCI H23) of 5350 nM and a CC50 (Du145) of 1050 nM.
`C#Cc1cn([C@@H]2O[C@H](CO)[C@@H](O)[C@H]2O)c2ncnc(N)c12` [Compound 2o, 4-Amino-5-ethynyl-7-(β-D-ribofuranosyl)-7H-pyrrolo[2,3-d]pyrimidine] gave a CC50 (human tumor cell lines) of 1.9 nM, a CC50 (PC3) of 11 nM and a CC50 (HS578) of 1 nM. It also gave a CC50 (HCT116) of 2 nM, a CC50 (NCI H23) of 1 nM and a CC50 [1] of 1 nM.
